Measured values: patent US20170231957A1, “INJECTABLE FORMULATIONS OF ASENAPINE” (ALRISE Biosystems GmbH, priority 2014, published 2017)
Counter-ions that a name gives are not always drawn. Like-named read-outs stand apart in the source and are kept apart here. Values belong to the molecule of their own block, whether it stands above or below them.

Experiments:
[1] = 20° C.; cited from earlier work
[2] = Solubility of asenapine maleate in a variety of solvents; assay type: physicochemical; details: organic solvent or mixture, read-out: solubility of asenapine maleate, Concentration
Experimental: The asenapine or a pharmaceutically acceptable salt thereof is dissolved in the organic phase or dispersed as a solid in the organic phase. In order to effectively dissolve the asenapine or a pharmaceutically acceptable salt thereof in the organic phase, a solution of the active principle in a solvent S2 can be provided, and this solution can be combined with the solution of the polymer in the organic solvent S1. It will be understood that, in this case, the solvents S1 and S2 should be different solvents. It is also possible to add the active principle to the solvent S2 in an amount that only a part of it is dissolved in S2, and a part of it remains dispersed as a solid in the solvent S2. Using the process described herein, the active principle can also be encapsulated/embedded in the polymer at a high efficiency in this case. […] Nevertheless, the following table summarizes the solubility of asenapine maleate in a variety of solvents.

serotonin receptors = details: rank among receptor classes; cited from earlier work
muscarinic receptors = details: cited from earlier work
[3] = cited from earlier work

Molecule: glycofurol
solubility in water [1]: soluble

solubility ([2]; DMSO): 700 mg/mL | solubility ([2]; THF): 100 mg/mL | solubility ([2]; solvent EMK): 50 mg/mL | solubility ([2]; solvent NMP): 700 mg/mL | solubility ([2]; solvent acetone): 67 mg/mL | solubility ([2]; solvent benzyl alcohol): 500 mg/mL | solubility ([2]; solvent benzyl benzoate): 7 mg/mL | solubility ([2]; solvent dimethycarbonate): 7 mg/mL | solubility ([2]; solvent dimethylacetamide): 500 mg/mL | solubility ([2]; solvent ethanol): 100 mg/mL | solubility ([2]; solvent ethyl acetate): 10 mg/mL | solubility ([2]; solvent ethyl benzoate): 10 mg/mL | solubility ([2]; solvent ethyl formate): 100 mg/mL | solubility ([2]; solvent glycofurol): 270 mg/mL | solubility ([2]; solvent isopropanol): 7 mg/mL | solubility ([2]; solvent isopropyl acetate): 9 mg/mL | solubility ([2]; solvent isopropyl formate): 100 mg/mL | solubility ([2]; solvent methyl acetate): 25 mg/mL | solubility ([2]; solvent methyl benzoate): 20 mg/mL
Molecule: CN1CC2c3ccccc3Oc3ccc(Cl)cc3C2C1 (stereo not shown) [asenapine maleate]

Molecule: CN1CC2c3ccccc3Oc3ccc(Cl)cc3C2C1 (stereo not drawn) [asenapine, trans-5-chloro-2,3,3a,12b-tetrahydro-2-methyl-1-H-dibenz[2,3:6,7]oxepino[4,5-c]pyrrole]
affinity for blocking serotonin receptors (serotonin receptors): highest affinity | affinity for muscarinic receptors (muscarinic receptors): minimal affinity | bioavailability ([3]; oral formulations): 2% | bioavailability ([3]; sublingual tablets): 35%

Molecule: CC(C)=O [acetone]
solubility in water [1]: soluble
